According to US10307414B2, “Pyridinyl and fused pyridinyl triazolone derivatives” (Takeda Pharmaceutical Company Limited, priority 2013, dated 2019):

Biological target: human BTK (Homo sapiens (Human), UniProt Q06187)
Assay: BTK inhibition assay: BTK-mediated phosphorylation of FAM-labeled substrate 5-FAM-[…]-NH2 (Caliper microfluidic separation)
Format: biochemical
Conditions: residues 382 to 659 of human BTK; 60 minutes at room temperature; pIC50 = -log(IC50), IC50 molar
Text: The activity of compounds as BTK inhibitors may be determined by a variety of methods, including in vitro and in vivo methods.
This construct engineers an in-frame translational fusion with the Glutathione-S-Transferase (GST) protein for use in affinity purification. The fusion protein derived from this construct contains a protease recognition sequence to liberate the BTK from the GST affinity tag. […] Recombinant proteins are isolated from cellular extracts by passage over Glutathione Sepharose 4B (GE Healthcare) and the BTK moiety is released from the GST affinity tag by treatment with PreScission protease. […] The purity of the fractions is assessed by SDS PAGE and the peak protein fractions are pooled and concentrated using Amicon Ultra-15 Centrifugal Filter Devices (Millipore).
The inhibitory properties of compounds relative to BTK is determined using a black 384-well-plate format in a buffer which contains 50 mM Hepes, 10 mM NaCl, 10 mM MgCl2, 0.2 mM EDTA, 0.01% Brij35®, 1 mM DTT, and 0.1 mg/mL BSA at pH 7.3. […] To quantify the fluorescent-labeled substrate and product following reaction, the test plate is loaded on a Caliper LC-3000, which measures percent of conversion by microfluidic-based separation. […]

Chain of human BTK (Q06187 382-659): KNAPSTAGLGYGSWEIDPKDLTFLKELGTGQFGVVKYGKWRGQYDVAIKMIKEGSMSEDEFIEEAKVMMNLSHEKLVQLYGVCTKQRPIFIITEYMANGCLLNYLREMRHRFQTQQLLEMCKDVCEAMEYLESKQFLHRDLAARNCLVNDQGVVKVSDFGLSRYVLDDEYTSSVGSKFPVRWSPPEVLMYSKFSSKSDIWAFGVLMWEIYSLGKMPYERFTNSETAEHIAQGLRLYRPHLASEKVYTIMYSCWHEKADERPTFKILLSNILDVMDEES

C=CC(=O)N1C[C@@H](C)[C@H](Oc2nc(-c3n[nH]c(=O)[nH]3)cc3ccccc23)C1 (single isomer, unassigned) [Example 19]
BTK Inhibition (pIC50): >8.2
